Common to all, as to assay: growth of human tumour cells (NCI), 48 h
Assay [1] deals with OVCAR-4 ovarian.
The subject of assay [2] is SK-OV-3 ovarian.
Assay [3] concerns RPMI-8226 leukemia.
In assay [4] the test system is RXF 393 renal.
Assay [5] has as its system SN12C renal.
Assay [6] relates to HCC-2998 colon.
In assay [7] the test system is ACHN renal.
In assay [8] the test system is KM12 colon.
The subject of assay [9] is A498 renal.
Assay [10] concerns NCI-H522 lung.

SMILES strings stand for the structures. Values joined by “and” are separate entries in the source; they are usually repeats but may differ in a detail not shown here. Identical values can stand only once.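 In this assay, cells in 96-well plates receive the compound at five concentrations for 48 hours. Endpoints are linearly interpolated between the surrounding concentrations. GI50 = concentration required for 50% inhibition of growth. TGI denotes the concentration required for complete inhibition of growth.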

Turning to `C=CC(=O)Nc1cccc(Oc2nc(Nc3ccc(N4CCN(C)CC4)cc3)nc3ccsc23)c1`, the GI50 is 2.74 µM and 3.23 µM in [1]; 0.307 µM and 0.508 µM in assay [2]; 2.01 µM and 1.96 µM in assay [3]; 1.54 µM in assay [4]; 1.58 µM and 1.61 µM in [5]; 14.8 µM in assay [6]. Moreover, the GI50 in assay [7] is 1.07 µM; in assay [8] it was 3.36 µM and 2.49 µM; in assay [9], 3.51 µM and 0.862 µM; in [10], 0.43 µM and 1.27 µM. Besides, the TGI is > 10 µM and 11.4 µM in [1]; > 10 µM and 14 µM in [2]; 4.91 µM and 4.62 µM in assay [3]; 3.31 µM and 4.26 µM in [4]; 4.35 µM and 4.61 µM in assay [5]; > 10 µM and 32.3 µM in assay [6]. The TGI is 2.51 µM in [7]; > 10 µM and 6.77 µM in assay [8]; > 10 µM and 9.65 µM in [9]; 2.21 µM and 3.04 µM in [10].
As for `NC(=O)c1csc(C2OC(CO)C(O)C2O)n1` (stereo unspecified), the TGI is 1160 µM in [1]; more than 5120 µM in assay [2]; 8150 µM in assay [3]; 6320 µM in [4]; more than 8480 µM in [5]; more than 10000 µM in assay [6]. In addition, the TGI in assay [7] was more than 10000 µM; in [8], 6070 µM; in assay [9] it was more than 9690 µM; in assay [10], 678 µM. The GI50 in [2] is 79.9 µM; in assay [3], more than 20.1 µM; in assay [6] it was 75.8 µM; in assay [7] it was 54.5 µM; in assay [8], 70.8 µM; in assay [10], 42.7 µM.
As to `CN1CCN(C(=O)c2cc(-c3ccc4ncnc(N5CCc6cc(F)c(Cl)cc65)c4c3)cnc2N)CC1`, the GI50 is 0.3 µM in [1]; 0.382 µM in assay [2]; 0.124 µM in assay [3]; 0.0922 µM in [4]; 0.15 µM in assay [5]; 0.242 µM in assay [6]. Also, the GI50 in assay [7] is 0.27 µM; in assay [8] it was 0.312 µM; in assay [9], 0.104 µM; in assay [10], 0.346 µM. Further, the TGI worked out at 4.22 µM in assay [1]; 2.21 µM in assay [2]; 0.557 µM in [3]; 0.48 µM in assay [4]; 10.5 µM in [5]; 1.65 µM in assay [6]. Besides, the TGI in [7] came out at 5.78 µM; in assay [8], 1.83 µM; in assay [9] it was 0.361 µM; in [10] it was 3.22 µM.
`O=C1OCC2=C1C(c1ccc(Cl)c(Cl)c1)c1cc3c(cc1N2CCO)OCCO3` (stereo unspecified): the GI50 is 0.382 µM in assay [1]; 0.215 µM in assay [2]; 0.405 µM in [3]; 0.116 µM in assay [4]; 0.688 µM in assay [5]; 0.503 µM in assay [6]. Besides, the GI50 is 0.334 µM in assay [7], 0.172 µM in assay [8], 0.147 µM in [9] and 0.0852 µM in [10]. Moreover, the TGI in [1] was more than 50 µM; in assay [2] it was 2.32 µM; in assay [3], 12.9 µM; in assay [4] it was 0.751 µM; in assay [5] it was 20 µM; in assay [6], 4.33 µM. Besides, the TGI was 44.9 µM in [7], 7.58 µM in assay [8], 1.84 µM in assay [9] and 0.283 µM in assay [10].
Consider `CCCCCCCCCCCCCCCCCC[n+]1ccc2c(C)c3c(c(C)c2c1)c1cc(O)ccc1n3CC`, for which the GI50 in assay [1] was 0.954 µM; in assay [2] it was 1.84 µM; in assay [3] it was 1.58 µM; in assay [4] it was 1.57 µM; in [5] it was 1.79 µM; in [6], 2.9 µM. Also, the GI50 in assay [7] was 3.51 µM; in [8] it was 2.01 µM; in assay [9] it was 1.19 µM; in [10] it was 1.89 µM. Besides, the TGI worked out at 12 µM in assay [1]; 7.6 µM in assay [2]; 17.5 µM in assay [3]; 3.89 µM in assay [4]; 6.08 µM in assay [5]; 20.6 µM in assay [6]. Also, the TGI in [7] is 19.6 µM; in assay [8], more than 100 µM; in assay [9], 3.86 µM; in assay [10] it was 18.1 µM.
Consider `C/C(=C\c1ccc2ccccc2c1)[N+](=O)[O-]`, for which the GI50 was 1.65 µM in assay [1]; 14.8 µM in assay [2]; 1.57 µM in assay [3]; 1.65 µM in assay [4]; 1.74 µM in [5]; 2.08 µM in assay [6]. Besides, the GI50 is 1.79 µM in [7], 2.11 µM in [8], 8.63 µM in assay [9] and 1.58 µM in [10]. Moreover, the TGI amounted to 3.01 µM in [1]; 28.7 µM in assay [2]; 4.39 µM in [3]; 3.06 µM in [4]; 3.23 µM in [5]; 4.23 µM in assay [6]. In addition, the TGI stood at 3.34 µM in [7], 4.19 µM in assay [8], 20.9 µM in [9] and 3 µM in assay [10].
`Cc1ccc(/C=N\NC(=O)c2[nH]c3ccc(F)cc3c2-c2ccccc2)cc1`: the GI50 is 0.147 µM in assay [1]; 0.0307 µM in assay [2]; 0.0395 µM in [3]; 0.0305 µM in assay [4]; 0.0436 µM in assay [5]; 0.0321 µM in [6]. For the same molecule, the GI50 was 0.0538 µM in assay [7], 0.0282 µM in assay [8], 0.0387 µM in assay [9] and 0.014 µM in assay [10]. In addition, the TGI in assay [1] was more than 100 µM; in [2] it was 2.19 µM; in assay [3], more than 37.2 µM; in [4], 1.49 µM; in assay [5], more than 100 µM; in [6], 16.5 µM. For the same molecule, the TGI in assay [7] was more than 100 µM; in [8] it was 0.898 µM; in assay [9], 24.5 µM; in [10] it was 0.569 µM.
For the molecule `COc1cc2c(cc1C1COc3cc4occc4cc3C1=O)OCO2` (stereo unspecified), the TGI in [1] was 36.5 µM; in assay [2], more than 100 µM; in assay [3] it was 30.1 µM; in [4], more than 100 µM; in assay [5] it was more than 100 µM; in [6], more than 100 µM. Further, the TGI in [7], in assay [8], in assay [9] and in assay [10] was more than 100 µM in each case.

For the origin of these results see PubChem BioAssay (NCI).
